# Laboratory results as given in patent US20090311237A1, “Combination therapy using a soluble hyaluronidase and a bisphosphonate” (priority 2008, published 2009).
# Read-outs that look alike come from different tables or passages of the source.
# Assay: Pharmacokinetics of ZA in pig serum after IV or SC infusion with or without rHuPH20 (LC-MS-MS, non-compartmental analysis)
# Format: in vivo
# Conditions: female, Yorkshire, pig, serum, subcutaneous, […], ZA […], read-out: Zoledronic Acid Serum Concentration
# Method: A pharmacokinetic study of zoledronic acid (ZA) co-administered with rHuPH20 in female Yorkshire swines was conducted. The primary objective of the study was to determine the bioavailability of zoledronic acid dosed via subcutaneous (SC) co-administration with human recombinant hyaluronidase PH20 (rHuPH20) and to compare the overall exposure to an equivalent IV dose.
# Animals in Study Group 1 were dosed with 0.15 mg/kg ZA given via a 20-minute IV infusion. Animals in Study Groups 2 and 3 were dosed subcutaneously (SC) with 0.15 mg/kg ZA without and with rHuPH20, respectively, in different SC delivery volumes.
# Following ZA dose administration, serial blood samples were collected via vascular access ports (VAPs) for serum preparation and determination of ZA concentrations. Blood collection times were at 1, 3, 5, 10, 15, 20, 30, 45, and 60 minutes, and at 1.5, 2, 3, 4, 6, 8, 10, 24, 48, and 72 hours post dose. Urine samples were also collected to compare excretion characteristics between IV and SC routes of administration. Collection times for urine were at 15 minutes before dosing (−15 min.), continuously from dose initiation to 2 hours post dose, and at 4, 6, 8, and 24 hours post dose thereafter.
# Serum concentration of ZA was determined using a qualified LC-MS-MS assay after derivatization with diazomethane (Zhu, L S et al. (2006) Rapid Commun. Mass Spectrom. 20: 3421-3426; “Qualification Data of An LC-MS/MS Method for the Determination of Zoledronate in Porcine Serum”, MDS Pharma Services Study No. AA43671-01, Report Date 14 Sep. 2007). The assay range was from 2.0 to 400 ng/mL with a lower limit of quantitation (LLOQ) at 2.0 ng/mL. Urine concentration of ZA was determined by a similar well qualified LC-MS-MS method (“Qualification Data of An LC-MS/MS Method for the Determination of Zoledronate in Porcine Urine”, MDS Pharma Services Study No. AA43671-02, Report Date 14 Sep. 2007) with an assay LLOQ at 10 ng/mL.
# Pharmacokinetic (PK) analyses of ZA serum concentration versus time data were conducted using WinNonlin v5.1 (Pharsight, Mountain View, Calif.). Non-compartmental analysis was used for derivation of primary and secondary pharmacokinetic (PK) parameters. AUC, Cmax, and Tmax were compared between dose routes, between co-administration with rHuPH20, and with dose of rHuPH20.
smiles,measurement,setting,value
"O=P(O)(O)C(O)(Cn1ccnc1)P(=O)(O)O [ZA, 1-hydroxy-2-(1H-imidazol-1-yl)ethylidene-1,1-bisphosphonic acid]",concentration at 1 h,"Time 1 h, pig ID 70, Study Group 2, SC, 10 mL, 1.6 min, rHuPH20 0 U/mL",0.101 µg/mL
same,concentration at 2 h,"Time 2 h, pig ID 59, Study Group 2, SC, 100 mL, 16 min, rHuPH20 0 U/mL",0.0229 µg/mL
same,concentration at 2 h,"Time 2 h, pig ID 60, Study Group 2, SC, 100 mL, 16 min, rHuPH20 0 U/mL",0.0758 µg/mL
same,concentration at 2 h,"Time 2 h, pig ID 62, Study Group 2, SC, 50 mL, 8 min, rHuPH20 0 U/mL",0.0284 µg/mL
same,concentration at 2 h,"Time 2 h, pig ID 69, Study Group 2, SC, 25 mL, 4 min, rHuPH20 0 U/mL",0.0318 µg/mL
same,concentration at 2 h,"Time 2 h, pig ID 70, Study Group 2, SC, 10 mL, 1.6 min, rHuPH20 0 U/mL",0.0377 µg/mL
same,concentration at 3 h,"Time 3 h, pig ID 59, Study Group 2, SC, 100 mL, 16 min, rHuPH20 0 U/mL",0.0133 µg/mL
same,concentration at 3 h,"Time 3 h, pig ID 60, Study Group 2, SC, 100 mL, 16 min, rHuPH20 0 U/mL",0.0275 µg/mL
same,concentration at 3 h,"Time 3 h, pig ID 62, Study Group 2, SC, 50 mL, 8 min, rHuPH20 0 U/mL",0.0135 µg/mL
same,concentration at 3 h,"Time 3 h, pig ID 69, Study Group 2, SC, 25 mL, 4 min, rHuPH20 0 U/mL",0.0205 µg/mL
same,concentration at 3 h,"Time 3 h, pig ID 70, Study Group 2, SC, 10 mL, 1.6 min, rHuPH20 0 U/mL",0.0222 µg/mL
same,concentration at 4 h,"Time 4 h, pig ID 59, Study Group 2, SC, 100 mL, 16 min, rHuPH20 0 U/mL",0.00648 µg/mL
same,concentration at 4 h,"Time 4 h, pig ID 60, Study Group 2, SC, 100 mL, 16 min, rHuPH20 0 U/mL",0.00903 µg/mL
same,concentration at 4 h,"Time 4 h, pig ID 62, Study Group 2, SC, 50 mL, 8 min, rHuPH20 0 U/mL",0.00474 µg/mL
same,concentration at 4 h,"Time 4 h, pig ID 69, Study Group 2, SC, 25 mL, 4 min, rHuPH20 0 U/mL",0.00811 µg/mL
same,concentration at 4 h,"Time 4 h, pig ID 70, Study Group 2, SC, 10 mL, 1.6 min, rHuPH20 0 U/mL",0.00947 µg/mL
same,concentration at 6 h,"Time 6 h, pig ID 60, Study Group 2, SC, 100 mL, 16 min, rHuPH20 0 U/mL",0.0036 µg/mL
same,concentration at 6 h,"Time 6 h, pig ID 62, Study Group 2, SC, 50 mL, 8 min, rHuPH20 0 U/mL",0.00299 µg/mL
same,concentration at 6 h,"Time 6 h, pig ID 69, Study Group 2, SC, 25 mL, 4 min, rHuPH20 0 U/mL",0.00292 µg/mL
same,concentration at 6 h,"Time 6 h, pig ID 70, Study Group 2, SC, 10 mL, 1.6 min, rHuPH20 0 U/mL",0.00409 µg/mL
same,concentration at 8 h,"Time 8 h, pig ID 70, Study Group 2, SC, 10 mL, 1.6 min, rHuPH20 0 U/mL",0.00207 µg/mL
same,concentration at […],"pig 56, Study Group 3, SC, rHuPH20 10000 U/mL, 25 mL over 4 min, time […]",0.0292 µg/mL
same,concentration at 2 h,"pig 58, Study Group 3, SC, rHuPH20 10000 U/mL, 50 mL over 8 min, time 2 h",0.0401 µg/mL
same,concentration at 3 h,"pig 58, Study Group 3, SC, rHuPH20 10000 U/mL, 50 mL over 8 min, time 3 h",0.0108 µg/mL
same,concentration at 4 h,"pig 58, Study Group 3, SC, rHuPH20 10000 U/mL, 50 mL over 8 min, time 4 h",0.00827 µg/mL
same,concentration at 6 h,"pig 58, Study Group 3, SC, rHuPH20 10000 U/mL, 50 mL over 8 min, time 6 h",0.00265 µg/mL
same,concentration at 0.05 h,"pig 64, Study Group 3, SC, rHuPH20 10000 U/mL, 100 mL over 16 min, time 0.05 h",0.057 µg/mL
same,concentration at 0.333 h,"pig 64, Study Group 3, SC, rHuPH20 10000 U/mL, 100 mL over 16 min, time 0.333 h",0.253 µg/mL
same,concentration at 0.5 h,"pig 64, Study Group 3, SC, rHuPH20 10000 U/mL, 100 mL over 16 min, time 0.5 h",0.197 µg/mL
same,concentration at 1 h,"pig 64, Study Group 3, SC, rHuPH20 10000 U/mL, 100 mL over 16 min, time 1 h",0.101 µg/mL
same,concentration at 2 h,"pig 64, Study Group 3, SC, rHuPH20 10000 U/mL, 100 mL over 16 min, time 2 h",0.0509 µg/mL
same,concentration at 3 h,"pig 64, Study Group 3, SC, rHuPH20 10000 U/mL, 100 mL over 16 min, time 3 h",0.0298 µg/mL
